ChEMBL document CHEMBL5131437, “Development of novel 2-aminoalkyl-6-(2-hydroxyphenyl)pyridazin-3(2H)-one derivatives as balanced multifunctional agents against Alzheimer's disease” (Eur J Med Chem, 2022)

Assays:
Acetylcholinesterase = Acetylcholinesterase (Electrophorus electricus, UniProt O42275); experiment: Inhibition of electric eel AChE by Ellman's method
[1] = Antioxidant activity of compound assessed as trolox equivalent of ORAC radical scavenging activity by ORAC-FL assay; format: functional
[2] = system: Butyrylcholinesterase (Rattus norvegicus); experiment: Inhibition of rat serum BuChE at 10 uM by Ellman's method relative to control
[3] = biological target: Amyloid-beta precursor protein (Homo sapiens) (UniProt P05067); experiment: Inhibition of self-induced amyloid beta (1 to 42) (unknown origin) aggregation by Thioflavin T based fluorometric assay relative to control; set-up: concentration or dose not given beside the values; conditions: concentration not given here
[4] = biological target: Acetylcholinesterase (Electrophorus electricus) (UniProt O42275); experiment: Inhibition of electric eel AChE at 10 uM by Ellman's method relative to control
[5] = biological target: Amyloid-beta precursor protein (Homo sapiens) (UniProt P05067); experiment: Inhibition of self-induced amyloid beta (1 to 42) (unknown origin) disaggregation by Thioflavin T based fluorometric assay relative to control; set-up: concentration or dose not given beside the values; conditions: concentration not given here

Amyloid-beta precursor protein (Homo sapiens), sequence (P05067 whole entry): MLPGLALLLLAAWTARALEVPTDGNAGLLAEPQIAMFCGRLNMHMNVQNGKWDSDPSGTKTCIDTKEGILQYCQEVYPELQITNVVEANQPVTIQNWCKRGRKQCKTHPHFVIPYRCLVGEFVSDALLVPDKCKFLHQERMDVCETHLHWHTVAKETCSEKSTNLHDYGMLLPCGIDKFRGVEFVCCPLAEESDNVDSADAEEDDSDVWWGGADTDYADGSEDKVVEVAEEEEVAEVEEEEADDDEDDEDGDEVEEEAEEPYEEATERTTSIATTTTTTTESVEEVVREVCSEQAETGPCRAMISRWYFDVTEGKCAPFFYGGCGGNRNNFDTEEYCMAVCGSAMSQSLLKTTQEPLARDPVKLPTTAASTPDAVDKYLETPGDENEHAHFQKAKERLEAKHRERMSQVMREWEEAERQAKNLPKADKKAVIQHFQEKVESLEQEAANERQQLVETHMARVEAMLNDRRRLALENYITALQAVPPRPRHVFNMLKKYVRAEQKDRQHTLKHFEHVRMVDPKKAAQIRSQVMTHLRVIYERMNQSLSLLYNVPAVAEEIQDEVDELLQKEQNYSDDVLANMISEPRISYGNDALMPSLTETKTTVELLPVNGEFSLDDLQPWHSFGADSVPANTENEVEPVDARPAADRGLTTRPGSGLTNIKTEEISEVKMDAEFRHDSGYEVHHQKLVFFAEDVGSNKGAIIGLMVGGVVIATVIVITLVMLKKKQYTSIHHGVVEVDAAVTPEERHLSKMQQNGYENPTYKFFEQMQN
Acetylcholinesterase, sequence (O42275 whole entry): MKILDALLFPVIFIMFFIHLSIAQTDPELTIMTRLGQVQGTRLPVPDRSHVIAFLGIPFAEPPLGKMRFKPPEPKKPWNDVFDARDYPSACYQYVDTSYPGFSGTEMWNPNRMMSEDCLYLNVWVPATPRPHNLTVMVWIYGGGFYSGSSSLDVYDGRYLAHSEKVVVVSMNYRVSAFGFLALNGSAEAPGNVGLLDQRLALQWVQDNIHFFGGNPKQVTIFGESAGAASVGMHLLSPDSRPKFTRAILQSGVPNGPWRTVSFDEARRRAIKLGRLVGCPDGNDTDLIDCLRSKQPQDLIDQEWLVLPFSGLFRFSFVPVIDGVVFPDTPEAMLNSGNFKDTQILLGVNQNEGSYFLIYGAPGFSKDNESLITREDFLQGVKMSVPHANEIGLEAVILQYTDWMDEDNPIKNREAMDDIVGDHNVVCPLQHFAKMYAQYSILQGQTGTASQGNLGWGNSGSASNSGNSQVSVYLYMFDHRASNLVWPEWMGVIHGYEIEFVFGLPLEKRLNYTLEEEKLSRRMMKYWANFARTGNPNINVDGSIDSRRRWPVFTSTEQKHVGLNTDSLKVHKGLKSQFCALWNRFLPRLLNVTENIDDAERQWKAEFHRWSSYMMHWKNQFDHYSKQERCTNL
Acetylcholinesterase (Electrophorus electricus), sequence (O42275 24-633 limits assumed): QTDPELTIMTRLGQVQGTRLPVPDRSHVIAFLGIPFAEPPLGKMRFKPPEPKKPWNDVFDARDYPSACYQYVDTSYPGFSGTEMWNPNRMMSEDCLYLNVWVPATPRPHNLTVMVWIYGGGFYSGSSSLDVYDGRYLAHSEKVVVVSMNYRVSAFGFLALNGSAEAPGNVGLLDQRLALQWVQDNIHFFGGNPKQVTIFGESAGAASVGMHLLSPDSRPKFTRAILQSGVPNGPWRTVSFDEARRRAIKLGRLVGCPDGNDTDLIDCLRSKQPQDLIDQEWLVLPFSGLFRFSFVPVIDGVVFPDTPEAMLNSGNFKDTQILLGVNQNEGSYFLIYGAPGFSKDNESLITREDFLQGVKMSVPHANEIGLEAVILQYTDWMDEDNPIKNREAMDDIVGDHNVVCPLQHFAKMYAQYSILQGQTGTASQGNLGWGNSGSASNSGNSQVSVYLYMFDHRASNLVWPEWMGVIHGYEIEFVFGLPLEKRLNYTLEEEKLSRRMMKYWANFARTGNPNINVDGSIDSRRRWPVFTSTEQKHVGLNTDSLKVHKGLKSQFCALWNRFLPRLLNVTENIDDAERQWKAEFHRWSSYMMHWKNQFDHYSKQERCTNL

O=c1ccc(-c2ccccc2O)nn1CCCCCCN1CCCCC1
IC50 (Acetylcholinesterase; read-out: IC50): 4560 nM
Activity [1]: 3.34
inhibition [2]: 25.6%

CCN(CCCCCCn1nc(-c2ccccc2O)ccc1=O)Cc1ccccc1F
inhibition [3]: 27.4%
IC50 (Acetylcholinesterase; read-out: IC50): 1030 nM
Activity [1]: 2.43
inhibition [2]: 15.7%

COc1ccccc1CN(C)CCCn1nc(-c2ccccc2O)ccc1=O
inhibition [4]: 17.6%
Activity [1]: 3.15
inhibition [2]: < 5%

O=c1ccc(-c2ccccc2O)nn1CCCCCCN1CCc2ccccc2C1
IC50 (Acetylcholinesterase; read-out: IC50): 2580 nM
Activity [1]: 2.58
inhibition [2]: 21.7%

CCN(CCCCCCn1nc(-c2ccccc2O)ccc1=O)Cc1ccccc1Cl
IC50 (Acetylcholinesterase; read-out: IC50): 2310 nM
Activity [1]: 1.72
inhibition [2]: 19.6%

O=c1ccc(-c2ccccc2O)nn1CCCCCCN1CCOCC1
inhibition [4]: 16.1%
Activity [1]: 3.13
inhibition [2]: < 5%

CCN(CCCCCCn1nc(-c2cc(OC)ccc2O)ccc1=O)Cc1cccc(F)c1
IC50 (Acetylcholinesterase; read-out: IC50): 2300 nM
Activity [1]: 1.95
inhibition [2]: 17.4%

CCN(CCCCCCOc1ccc(-c2ccccc2O)nn1)Cc1cccc(F)c1
inhibition [3]: 26.4%
IC50 (Acetylcholinesterase; read-out: IC50): 4260 nM
Activity [1]: 0.54
inhibition [2]: 18.5%

CCN(CCCCCCn1nc(-c2ccc(N(C)C)cc2O)ccc1=O)Cc1ccccc1N(C)C
inhibition [3]: 71.3%
IC50 (Acetylcholinesterase; read-out: IC50): 2160 nM
Activity [1]: 2.49
inhibition [5]: 67.8%
inhibition [2]: 17.6%

CCN(CCCCCCn1nc(-c2cc([N+](=O)[O-])ccc2O)ccc1=O)Cc1cccc(F)c1
IC50 (Acetylcholinesterase; read-out: IC50): 1000 nM
Activity [1]: 0.29
inhibition [2]: 33.3%

CCN(CCCCCCOc1ccc(-c2ccccc2O)nn1)Cc1ccc(F)cc1
IC50 (Acetylcholinesterase; read-out: IC50): 49000 nM
Activity [1]: 0.61
inhibition [2]: < 5%

CCN(CCCCCCn1nc(-c2cc(OC)ccc2O)ccc1=O)Cc1ccccc1OC
IC50 (Acetylcholinesterase; read-out: IC50): 630 nM
Activity [1]: 1.96
inhibition [2]: 27.3%

CCN(CCCCCCn1nc(-c2cc(N(C)C)ccc2O)ccc1=O)Cc1ccccc1OC
inhibition [3]: 93.9%
IC50 (Acetylcholinesterase; read-out: IC50): 1210 nM
Activity [1]: 2.17
inhibition [5]: 79.2%
inhibition [2]: 16.7%

CCN(CCCCCCn1nc(-c2cc(NC(C)=O)ccc2O)ccc1=O)Cc1ccccc1OC
inhibition [3]: 42.6%
IC50 (Acetylcholinesterase; read-out: IC50): 370 nM
Activity [1]: 2.06
inhibition [5]: 38.7%
inhibition [2]: 8.02%

CCN(CCCn1nc(-c2ccccc2O)ccc1=O)Cc1ccccc1
inhibition [4]: 18.5%
Activity [1]: 3.29
inhibition [2]: < 5%

CCN(CCCCCCOc1ccc(-c2cc(N(C)C)ccc2O)nn1)Cc1ccccc1N(C)C
inhibition [3]: 95.2%
IC50 (Acetylcholinesterase; read-out: IC50): 2180 nM
Activity [1]: 2.28
inhibition [5]: 85.4%
inhibition [2]: 16.6%

CCN(CCCCCCn1nc(-c2cc(NC(C)=O)ccc2O)ccc1=O)Cc1cccc(F)c1
inhibition [3]: 38.8%
IC50 (Acetylcholinesterase; read-out: IC50): 69 nM
Activity [1]: 2.1
inhibition [2]: 17.7%

CCN(CCCCCCn1nc(-c2cc(Cl)ccc2O)ccc1=O)Cc1ccccc1N(C)C
IC50 (Acetylcholinesterase; read-out: IC50): 740 nM
Activity [1]: 1.09
inhibition [2]: 27.3%

CCN(CCCn1nc(-c2ccccc2O)ccc1=O)Cc1ccccc1N(C)C
inhibition [3]: 34.7%
inhibition [4]: 32.4%
Activity [1]: 2.3
inhibition [2]: < 5%

CCN(CCCCCCn1nc(-c2ccc(OC)cc2O)ccc1=O)Cc1ccccc1N(C)C
inhibition [3]: 34.3%
IC50 (Acetylcholinesterase; read-out: IC50): 1590 nM
Activity [1]: 3.55
inhibition [2]: 19.2%

CCN(CCCCCCn1nc(-c2cc(F)ccc2O)ccc1=O)Cc1cccc(F)c1
inhibition [3]: 33.8%
IC50 (Acetylcholinesterase; read-out: IC50): 250 nM
Activity [1]: 0.75
inhibition [2]: 33%

CCN(CCCCCCn1nc(-c2cccc(N(C)C)c2O)ccc1=O)Cc1ccccc1N(C)C
inhibition [3]: 57.9%
IC50 (Acetylcholinesterase; read-out: IC50): 4780 nM
Activity [1]: 2.03
inhibition [5]: 53%
inhibition [2]: 18.8%

COc1ccccc1CN(C)CCCCCCn1nc(-c2ccccc2O)ccc1=O
inhibition [3]: 30.9%
IC50 (Acetylcholinesterase; read-out: IC50): 1070 nM
IC50 (Acetylcholinesterase; read-out: pIC50 (converted)): 85.1 nM
Activity [1]: 2.89
inhibition [2]: 22.6%

CCN(CCCCCCn1nc(-c2ccccc2O)ccc1=O)Cc1ccccc1C
IC50 (Acetylcholinesterase; read-out: IC50): 2540 nM
Activity [1]: 2.54
inhibition [2]: 13.6%

CCN(CCCCCCn1nc(-c2cc(Br)ccc2O)ccc1=O)Cc1ccccc1N(C)C
IC50 (Acetylcholinesterase; read-out: IC50): 250 nM
Activity [1]: 1.48
inhibition [2]: 32.2%

CCN(CCCCCCn1nc(-c2cc([N+](=O)[O-])ccc2O)ccc1=O)Cc1ccccc1N(C)C
IC50 (Acetylcholinesterase; read-out: IC50): 460 nM
Activity [1]: 0.42
inhibition [2]: 28.3%

CN(CCCn1nc(-c2ccccc2O)ccc1=O)Cc1ccccc1
inhibition [4]: 36.7%
Activity [1]: 1.71
inhibition [2]: < 5%

CCN(CCCn1nc(-c2ccccc2O)ccc1=O)Cc1cccc(F)c1
inhibition [4]: 18.7%
Activity [1]: 3.09
inhibition [2]: < 5%

O=c1ccc(-c2ccccc2O)n[nH]1
Activity [1]: 2.15
inhibition [2]: < 5%

CCN(CCCCCCn1nc(-c2ccc(F)cc2O)ccc1=O)Cc1ccccc1N(C)C
IC50 (Acetylcholinesterase; read-out: IC50): 1180 nM
Activity [1]: 1.09
inhibition [2]: 27.3%
